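Dose response: 5 concentrations. Exposure: 48 h. Format: 96-well plates. Endpoint: linear interpolation; highest concentration if not reached. At the GI50, growth is halved. The concentration for full growth arrest is given as TGI.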
Legend:
Experiment in all cases: NCI anticancer screen, dose series, 48 h
OVCAR-3 ovarian = tested on: OVCAR-3 ovarian
NCI-H460 lung = tested on: NCI-H460 lung
TK-10 renal = tested on: TK-10 renal
HCT-15 colon = tested on: HCT-15 colon
OVCAR-4 ovarian = tested on: OVCAR-4 ovarian
HOP-62 NSCLC = tested on: HOP-62 NSCLC
NCI-H23 lung = tested on: NCI-H23 lung
NCI-H522 lung = tested on: NCI-H522 lung
SK-OV-3 ovarian = tested on: SK-OV-3 ovarian
HS 578T breast = tested on: HS 578T breast

Row | SMILES | TGI (OVCAR-3 ovarian) [µM] | TGI (NCI-H460 lung) [µM] | TGI (TK-10 renal) [µM] | TGI (HCT-15 colon) [µM] | TGI (OVCAR-4 ovarian) [µM] | TGI (HOP-62 NSCLC) [µM] | TGI (NCI-H23 lung) [µM] | TGI (NCI-H522 lung) [µM] | TGI (SK-OV-3 ovarian) [µM] | GI50 (OVCAR-3 ovarian) [µM] | GI50 (NCI-H460 lung) [µM] | GI50 (TK-10 renal) [µM] | GI50 (HCT-15 colon) [µM] | GI50 (HS 578T breast) [µM] | TGI (HS 578T breast) [µM] | GI50 (OVCAR-4 ovarian) [µM] | GI50 (HOP-62 NSCLC) [µM] | GI50 (NCI-H522 lung) [µM] | GI50 (SK-OV-3 ovarian) [µM] | GI50 (NCI-H23 lung) [µM]
1 | CCCCCCCC(=O)NCC(O)CNC(=O)CCCCCCC | > 100 | > 100 | > 100 | > 100 | > 100 | > 100 | > 100 | > 100 | > 100 |  |  |  |  |  |  |  |  |  |  | 
2 | Nc1ncnc2c1ncn2Cc1ccc(C23CC4CC(CC(C4)C2)C3)c(OCc2cc(F)c(F)cc2F)c1 | > 100 | > 100 | > 100 | > 100 | > 100 | 18.9 |  | > 100 | > 100 | 3.27 | 4.33 | 4.37 | 4.92 | 52 | > 100 | 90.8 | 6.98 | 7.86 | 87.7 | 
3 | Cc1ccccc1C1=[N+]([O-])c2ccccc2C1=O | 25.2 | 37.3 | 32.2 | 34.8 |  | 57.2 | 35.4 | 29 | > 100 |  |  |  |  |  |  |  |  |  |  | 
4 | CC(=O)CCc1ccc(OC2OC(COC(=O)c3cc(O)c(O)c(O)c3)C(O)C(O)C2OC(=O)/C=C/c2ccccc2)cc1 (stereo unspecified) | 72.4 | 43.5 | 61.3 | > 100 | 89.7 | 33.8 | 38.6 | 48 | 68.5 | 23.8 | 21 | 23.8 | 26.2 | 33.8 | > 100 | 23.8 | 17.2 | 18.1 | 29.8 | 17.5
5 | O=C1c2cccnc2C(=O)C2C3C=CC(C3)C12 (stereo unspecified) | 31.8 | 15.6 | 31.9 | 34.8 | 21.7 | 20.4 | 58 | 13.8 | 43.9 |  |  |  |  |  | 85.1 |  |  |  |  | 
6 | COc1cc2cc(C(=O)CCC(=O)O)sc2cc1OC | > 100 | > 100 | > 100 | > 100 | > 100 | > 100 | > 100 | > 100 | > 100 | > 100 | > 100 | > 100 | > 100 | > 100 | > 100 | > 100 | > 100 | > 100 | 62.4 | > 100
7 | CCOC(=O)c1c(-c2ccccc2)oc(-c2ccccc2)c1C(=O)OCC | > 100 |  | > 100 |  |  | > 100 | > 100 | > 100 | > 100 |  |  |  |  |  |  |  |  |  |  | 
8 | CC(=O)Oc1cc(C)c2c(c1OC(C)=O)CC1(O2)[C@@H](C)CCC2[C@@]3(C)CC[C@H](OC(C)=O)C(C)(C)C3CC[C@]21C (stereo partly specified) | 8.41 | 10.8 | 11.1 | 13 |  | 8.3 | 11.5 |  | 25.5 |  |  |  |  |  |  |  |  |  |  | 
9 | Cn1ccnc1C(=O)/C=C/c1ccc(C(=O)Nc2ccc(S(F)(F)(F)(F)F)cc2)cc1 | 7.26 | 2.57 | > 14.3 | 4.92 | > 14.3 | > 14.3 | > 14.3 | > 14.3 | > 14.3 | 1.05 | 0.534 | 4 | 0.799 | 3.4 | > 14.3 | 0.704 | 4.05 | 4.69 | > 14.3 | 0.853
10 | CCCCOc1ccc(NC(=O)n2nc(N)c3ccccc32)cc1 | 42.2 | 31.2 | > 73.5 | 70.4 | > 100 | 60.6 | 57.5 | > 89.1 | > 100 | 19 | 13 | 26.9 | 16.9 | 20.7 | 53.4 | 26.6 | 24.4 | 23.9 | 49.2 | 22.6
11 | O=C(O)C1=CCCc2ccc3ccccc3c21 | > 100 | > 100 | > 100 | > 100 | > 100 |  | > 100 | > 100 | > 100 |  |  |  |  |  |  |  |  |  |  | 
12 | CCOC(=O)/C(=N\OC)C(O)C(F)(F)F (stereo unspecified) |  |  | > 100 | > 100 |  | > 100 | > 100 | > 100 | > 100 |  |  |  |  |  | > 100 |  |  |  |  | 
13 | CC(C)(O)C#Cc1ccc(/C=C/C(=O)c2ccccc2)s1 | 31.5 | 33.5 | 35.8 | 30.8 | 39 |  | 34.7 | 32.7 | 30.1 | 17 | 17.3 | 19.4 | 15.7 | 25.5 | 79.7 | 17.1 |  | 16 | 16.5 | 16.9
14 | CSc1cccc(-n2c3nc(=O)n(C)c(=O)c-3nc3ccccc32)c1 | 6.17 | 10.2 | 40.9 | 23.3 | 21.6 | 45.3 | 70.3 | 28.3 | 96 |  |  |  |  |  |  |  |  |  |  | 
15 | CC(=O)N1c2ccccc2C2=CC3C4C(=O)N(c5ccccc5)C(=O)C4C21C1C(=O)N(c2ccccc2)C(=O)C31 (stereo unspecified) |  | > 100 | > 100 | > 100 |  |  | > 100 |  | > 100 |  |  |  |  |  |  |  |  |  |  | 
16 | CCN(CC)CCCn1cnc2ncccc2c1=O | > 100 | > 100 | > 100 |  | > 100 | > 100 | > 100 | > 100 | > 100 |  |  |  |  |  |  |  |  |  |  | 
17 | Cc1oc2c(C)c3oc(=O)cc(C)c3cc2c1CNC(=O)[C@@H]1OCCOCCOCCOCCOCCOC1C(=O)O (stereo partly specified) | > 100 | > 100 | > 100 | > 100 | > 100 | > 100 | > 100 | > 100 | > 100 |  |  |  |  |  |  |  |  |  |  | 
18 | C=C(C)C1Cc2c(cc(OC)c3c(=O)c4cccc(O)c4oc23)O1 (stereo unspecified) |  | 62.6 | 46.9 | > 100 | 42.4 | 36.5 | 59.5 | 33.8 | 33.7 |  |  |  |  |  | 49.3 |  |  |  |  | 
